Results published in US12043600B2, “Microbiocidal compounds” (SYNGENTA CROP PROTECTION AG, priority 2018, dated 2024).

What was measured:
Sclerotinia sclerotiorum = assay: Sclerotinia sclerotiorum/Liquid Culture (Cottony Rot); type: cell-based; details: liquid culture, compared to untreated control
Procedure: Mycelia fragments of a newly grown liquid culture of the fungus are directly mixed into nutrient broth (PDB potato dextrose broth). After placing a (DMSO) solution of test compound into a microtiter plate (96-well format) the nutrient broth containing the fungal material is added.

[1] = system: Puccinia recondita f. sp. tritici; assay: Puccinia recondita f. sp. tritici/Wheat/Leaf Disc Curative (Brown Rust); type: in vivo; details: foliar, wheat leaf disc curative, compared to untreated control
Method in brief: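 Curative leaf-disc test on wheat cv. Kanzler segments on agar, spore-inoculated and kept dark at 19° C, 75% rh; formulated compound in water applied 1 day after inoculation. Incubated at 19° C, 75% rh, 12 h light/12 h dark; percent disease control versus untreated scored 6-8 days after application.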

[2] = system: Blumeria graminis f. sp. tritici (Erysiphe graminis f. sp. tritici); assay: Blumeria graminis f. sp. tritici/Wheat/Leaf Disc Preventative (Powdery Mildew on Wheat); type: in vivo; details: foliar, wheat leaf disc preventative, compared to untreated control
Method in brief: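 Wheat cv. Kanzler leaf segments on agar sprayed with formulated compound, inoculated with powdery mildew 1 day later and held at 20° C, 60% rh (24 h dark, then 12 h light/12 h dark). Percent disease control versus untreated scored 6-8 days after application.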

[3] = system: Glomerella lagenarium (Colletotrichum lagenarium); assay: Glomerella lagenarium (Colletotrichum lagenarium)/Liquid Culture (Anthracnose); type: cell-based; details: Colletotrichum orbiculare, liquid culture, compared to untreated control
[4] = system: Thanatephorus cucumeris (Rhizoctonia solani); assay: Thanatephorus cucumeris (Rhizoctonia solani)/Liquid Culture (Foot Rot, Damping-Off); type: cell-based; details: liquid culture, compared to untreated control
Procedure: Mycelia fragments of a newly grown liquid culture of the fungus are directly mixed into nutrient broth (PDB potato dextrose broth). After placing a (DMSO) solution of the test compounds into a microtiter plate (96-well format), the nutrient broth containing the fungal material is added.

[5] = system: Puccinia recondita f. sp. tritici; assay: Puccinia recondita f. sp. tritici/Wheat/Leaf Disc Preventative (Brown Rust); type: in vivo; details: foliar, 200 ppm, wheat leaf disc preventative, compared to untreated control, read-out: control of Puccinia recondita f. sp. tritici
[6] = system: Monographella nivalis (Microdochium nivale); assay: Monographella nivalis (Microdochium nivale)/Liquid Culture (Foot Rot Cereals); type: cell-based; details: liquid culture, compared to untreated control
Method in brief: (§1)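 First, the test compound in DMSO is placed in the wells. Next, potato dextrose broth seeded with conidia taken straight from cryogenic storage is added, and the culture is left to grow.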

Plasmopara viticola = assay: whole plant or invertebrate; type: in vivo; details: foliar, read-out: control of Plasmopara viticola
[7] = system: Mycosphaerella arachidis (Cercospora arachidicola); assay: Mycosphaerella arachidis (Cercospora arachidicola)/Liquid Culture (Early Leaf Spot); type: cell-based; details: liquid culture, compared to untreated control
Method in brief: as §1

[8] = system: Magnaporthe grisea (Pyricularia oryzae); assay: whole plant or invertebrate; type: in vivo; details: foliar, read-out: control of Magnaporthe grisea
[9] = system: Mycosphaerella graminicola (Septoria tritici); assay: Mycosphaerella graminicola (Septoria tritici)/Liquid Culture (Septoria Blotch); type: cell-based; details: Zymoseptoria tritici; 20 ppm; liquid culture; compared to untreated control
Method in brief: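 Conidia from cryogenic storage mixed into potato dextrose broth and added to microtiter wells already holding DMSO solutions of test compound. Activity expressed as percentage disease control.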

[10] = system: Phaeosphaeria nodorum (Septoria nodorum); assay: Phaeosphaeria nodorum (Septoria nodorum)/Wheat/Leaf Disc Preventative (Glume Blotch); type: in vivo; details: Parastagonospora nodorum, foliar, wheat leaf disc preventative, compared to untreated control
Method in brief: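 Wheat cv. Kanzler leaf discs on agar were sprayed with formulated compound diluted in water and inoculated with P. nodorum spores 2 days later. Discs kept at 20 °C, 75% rh, 12 h light/dark; percent disease control versus untreated scored 5–7 days after application.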

Pyrenophora teres = assay: Pyrenophora teres/Barley/Leaf Disc Preventative (Net Blotch); type: in vivo; details: foliar, 200 ppm, barley leaf disc preventative, compared to untreated control, read-out: control of Pyrenophora teres
Method in brief: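 Formulated compound, diluted in water, sprayed onto barley cv. Hasso leaf segments on agar; spore suspension inoculation followed 2 days after application. Results expressed as percentage disease control.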

[11] = Photostability assay (Atlas Suntest); type: physicochemical; details: Suntest 750 W/m^2, spotted on microscope slides
Method in brief: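 Compound (2 μl of 1 g/L methanol stock) spotted on glass slides and irradiated at 750 W/m^2 in a Suntest. Slides were washed with H2O:MeCN:THF 50:40:10 and analysed by reverse-phase UPLC-PDA; peak area versus initial gave % parent remaining at 3 hours.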

Phytophthora infestans = assay: whole plant or invertebrate; type: in vivo; details: in Solanum lycopersicum, foliar, read-out: control of Phytophthora infestans
Alternaria solani = assay: Alternaria solani/Tomato/Leaf Disc (Early Blight); type: in vivo; details: foliar, tomato leaf disc, compared to untreated control
Method in brief: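 Tomato cv. Baby leaf disks on agar were sprayed with diluted formulated compound and inoculated with spores 2 days later. Incubation at 23° C./21° C. day/night, 80% rh, 12/12 h light; percent disease control versus untreated scored 5-7 days after application.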

[12] = system: Botryotinia fuckeliana (Botrytis cinerea); assay: Botryotinia fuckeliana (Botrytis cinerea)/Liquid Culture (Gray Mould); type: cell-based; details: liquid culture, compared to untreated control
Procedure: Conidia of the fungus from cryogenic storage are directly mixed into nutrient broth (Vogels broth). After placing a (DMSO) solution of test compound into a microtiter plate (96-well format), the nutrient broth containing the fungal spores is added.

Phakopsora pachyrhizi = assay: Phakopsora pachyrhizi/Soybean/Preventative (Soybean Rust); type: in vivo; details: foliar, 288 h, 200 ppm, soybean leaf disc preventative, compared to untreated control, read-out: control of Phakopsora pachyrhizi

SMILES | inhibition of growth at 20 ppm (Sclerotinia sclerotiorum) | pest or weed control at 200 ppm [1] | pest or weed control at 200 ppm [2] | inhibition of growth at 20 ppm [3] | inhibition of growth at 20 ppm [4] | pest or weed control at 200 ppm [5] | inhibition of growth at 20 ppm [6] | melting point | pest or weed control at 200 ppm (Plasmopara viticola) | inhibition of growth at 20 ppm [7] | pest or weed control at 200 ppm [8] | inhibition of growth at 20 ppm [9] | pest or weed control at 200 ppm [10] | pest or weed control at 200 ppm (Pyrenophora teres) | % Parent Remaining @ 3 hrs [11] | pest or weed control at 200 ppm (Phytophthora infestans) | pest or weed control at 200 ppm (Alternaria solani) | inhibition of growth at 20 ppm [12] | pest or weed control at 200 ppm (Phakopsora pachyrhizi)
CO/C=C(\Oc1cc(-n2ccc(C(F)(F)C(F)(F)F)n2)ccc1C)C(=O)OC [Compound E-69, methyl (Z)-3-methoxy-2-[2-methyl-5-[3-(1,1,2,2,2-pentafluoroethyl)pyrazol-1-yl]phenoxy]prop-2-enoate] | ≥ 80% | ≥ 80% | ≥ 80% | ≥ 80% | ≥ 80% | ≥ 80% | ≥ 80% | 117 to 120 °C | ≥ 80% | ≥ 80% | ≥ 80% | ≥ 80% |  |  |  |  |  |  | 
CO/C=C(\Oc1cc(-n2ccc(C3(F)CC3)n2)ccc1C)C(=O)OC [Compound E-67, methyl (Z)-2-[5-[3-(1-fluorocyclopropyl)pyrazol-1-yl]-2-methyl-phenoxy]-3-methoxy-prop-2-enoate] | ≥ 80% | ≥ 80% | ≥ 80% | ≥ 80% | ≥ 80% | ≥ 80% | ≥ 80% | 128 to 131 °C | ≥ 80% | ≥ 80% |  | ≥ 80% | ≥ 80% | ≥ 80% | 37% | ≥ 80% | ≥ 80% |  | 
CO/C=C(\Oc1cc(-n2ccc(C3CCCCC3)n2)ccc1C)C(=O)OC [Compound E-36, methyl (Z)-2-[5-(3-cyclohexylpyrazol-1-yl)-2-methyl-phenoxy]-3-methoxy-prop-2-enoate] | ≥ 80% | ≥ 80% |  | ≥ 80% | ≥ 80% | ≥ 80% | ≥ 80% | 85 to 89 °C | ≥ 80% | ≥ 80% | ≥ 80% | ≥ 80% | ≥ 80% | ≥ 80% |  | ≥ 80% | ≥ 80% | ≥ 80% | 
C=C(c1ccn(-c2ccc(C)c(O/C(=C\OC)C(=O)OC)c2)n1)C(F)(F)F [Compound E-24, methyl (Z)-3-methoxy-2-[2-methyl-5-[3-[1-(trifluoromethyl)vinyl]pyrazol-1-yl]phenoxy]prop-2-enoate] | ≥ 80% | ≥ 80% | ≥ 80% | ≥ 80% | ≥ 80% | ≥ 80% | ≥ 80% |  | ≥ 80% | ≥ 80% | ≥ 80% | ≥ 80% | ≥ 80% |  |  | ≥ 80% |  | ≥ 80% | 
CO/C=C(\Oc1cc(-n2ccc(C(C)C(F)(F)F)n2)ccc1C)C(=O)OC (stereo not drawn) [Compound E-23, methyl (Z)-3-methoxy-2-[2-methyl-5-[3-(2,2,2-trifluoro-1-methyl-ethyl)pyrazol-1-yl]phenoxy]prop-2-enoate] | ≥ 80% | ≥ 80% |  | ≥ 80% | ≥ 80% | ≥ 80% | ≥ 80% | 119 to 122 °C | ≥ 80% | ≥ 80% |  | ≥ 80% |  |  |  | ≥ 80% |  | ≥ 80% | 
CO/C=C(\Oc1cc(-n2ncc(C3CCCCC3)n2)ccc1C)C(=O)OC [Compound F-7, methyl (Z)-2-[5-(4-cyclohexyltriazol-2-yl)-2-methyl-phenoxy]-3-methoxy-prop-2-enoate] | ≥ 80% | ≥ 80% | ≥ 80% | ≥ 80% |  | ≥ 80% | ≥ 80% | 120 to 122 °C | ≥ 80% | ≥ 80% | ≥ 80% | ≥ 80% | ≥ 80% | ≥ 80% |  |  |  |  | 
CO/C=C(\Oc1cc(-n2ccc(C(C)C)n2)cc(C)c1C)C(=O)OC [Compound E-20, methyl (Z)-2-[5-(3-isopropylpyrazol-1-yl)-2,3-dimethyl-phenoxy]-3-methoxy-prop-2-enoate] | ≥ 80% | ≥ 80% |  | ≥ 80% |  | ≥ 80% | ≥ 80% | 103 to 105 °C | ≥ 80% | ≥ 80% | ≥ 80% | ≥ 80% | ≥ 80% |  |  | ≥ 80% |  |  | ≥ 50%
